Experimental findings from PMC7689250, “Synthetic Peptide Libraries Designed From a Minimal Alpha-Helical Domain of AS-48-Bacteriocin Homologs Exhibit Potent Antibacterial Activity” (Frontiers in Microbiology, 2020) are described below.

The test system of one series is S. aureus (USA300). The series is classed as cell-based, Staphylococcus aureus. The conditions noted are these: for MBC: USA300; for MIC: USA300, 16 h. A digest of the protocol:
(§1)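 MIC in Mueller-Hinton broth with 1 × 10^6 CFU/mL bacteria, overnight cultures grown first in LB (E. coli, P. aeruginosa, S. aureus) or Todd-Hewitt (S. pyogenes); growth read as OD 600. Library members screened at half the parent peptide MIC; MBC as lowest concentration giving no colonies after plating MIC wells, 37°C overnight.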

For another series, the system named is S. pyogenes (M1). Type of series: cell-based, Streptococcus pyogenes. To be noted: for MBC: M1; for MIC: M1, 16 h. The procedure, abridged: as §1
Another series concerns sheep erythrocytes. Type of series: cell-based. To be noted: red cells of sheep, 1 h. A digest of the protocol:
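Washed defibrinated sheep blood, diluted 1:25 in PBS, incubated 1 h at 37 °C with peptide at the MIC-assay concentrations (sample:blood 1:10). Haemoglobin release read as supernatant absorbance at 450 nm; percent haemolysis normalised to PBS and 10% Triton controls.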

A further series relates to P. aeruginosa (PAO1). The series is classed as cell-based, Pseudomonas aeruginosa. The conditions noted are these: for MBC: PAO1; for MIC: PAO1, 16 h. A digest of the protocol: as §1
The subject of series [1] is GFP-expressing E. coli strain BL21. The experiment in a line: Live imaging of GFP leakage. The conditions noted are these: 16 μM peptide, 8 h, 37°C, images every 10 min. The series is classed as cell-based, Escherichia coli. The protocol: To observe bacterial cell death in the presence of peptide in real time, fluorescence microscopy was employed using GFP-expressing E. coli strain BL21. MIC assays were conducted against BL21-GFP to determine the peptide concentration used for microscopy experiments. The peptide was suspended in PBS and added to diluted bacterial cells. GFP-expressing E. coli in the presence of peptide were imaged on the Eclipse Ti-E inverted microscope (Nikon) using GFP and DIC channels for 8 h at 37°C, with images taken every 10 min ([Fields et al., 2020]). Syn-xiamencin-2, a peptide with no detectable antimicrobial activity below 128 μM was also evaluated as a negative peptide candidate control.

A further series relates to E. coli (BL21). The series is classed as cell-based, Escherichia coli. The procedure, abridged: as §1
Setting [2] is: E. coli BL21, running text b43, unit printed nm.

Read-outs that look alike come from different tables or passages of the source. Residues, ends and D or L forms follow the SMILES beside them. Bounds are passed on as bounds.

Take `CC[C@H](C)[C@H](NC(=O)[C@H](CCCCN)NC(=O)[C@H](CCCCN)NC(=O)CNC(=O)[C@H](CCC(=O)O)NC(=O)[C@H](CCC(N)=O)NC(=O)[C@@H](NC(=O)[C@@H](NC(=O)[C@H](CCCCN)NC(=O)[C@H](CCCCN)NC(=O)[C@H](CC(C)C)NC(=O)[C@H](CCCNC(=N)N)NC(=O)[C@H](CCC(N)=O)NC(=O)[C@H](Cc1ccccc1)NC(=O)[C@@H](NC(=O)[C@H](CCCCN)NC(=O)[C@H](CCC(=O)O)NC(=O)[C@@H](NC(=O)[C@H](Cc1c[nH]c2ccccc12)NC(=O)[C@H](C)N)[C@@H](C)O)[C@@H](C)CC)[C@@H](C)O)[C@@H](C)CC)C(=O)N[C@@H](C)C(=O)N[C@@H](CCCCN)C(=O)N[C@@H](CCCNC(=N)N)C(=O)N[C@@H](C)C(=O)N[C@@H](Cc1c[nH]c2ccccc12)C(=O)O` [Syn-larvacin-39] (H-AWTEKIFQRLKKTIQEGKKIAKRAW-OH; N-terminus and C-terminus assumed): the MBC was 4 µM with S. aureus (USA300), 4 µM in the series on S. pyogenes (M1), 64 µM in the series on P. aeruginosa (PAO1) and “below 15.6 nM” in the series on E. coli (BL21) (setting [2]). The MIC with S. aureus (USA300) was 1 µM; with S. pyogenes (M1), 2 µM; in the series on P. aeruginosa (PAO1), 16 µM; in the series on E. coli (BL21) (BL21), 0.0156 µM; with E. coli (BL21) (BL21, 16 h), below 0.0156 µM; with E. coli (BL21) (setting [2]) it was “below 15.6 nM”. In the series on sheep erythrocytes, the “Percent Hemolysis” value was 14.4%. Besides, the “GFP leakage / change in fluorescence” value in series [1] is reported as “significant decrease in fluorescence”.
With `CC[C@H](C)[C@H](NC(=O)[C@H](Cc1ccccc1)NC(=O)[C@H](C)NC(=O)[C@H](CCCCN)NC(=O)[C@H](CCCCN)NC(=O)CNC(=O)[C@H](CCCNC(=N)N)NC(=O)[C@H](CCCCN)NC(=O)[C@H](CCCNC(=N)N)NC(=O)[C@H](CC(C)C)NC(=O)[C@H](CCC(=O)O)NC(=O)[C@H](CCC(=O)O)NC(=O)[C@H](CC(C)C)NC(=O)[C@H](CC(C)C)NC(=O)[C@H](Cc1ccc(O)cc1)NC(=O)[C@H](CCCCN)NC(=O)[C@@H](NC(=O)[C@H](CC(C)C)NC(=O)[C@H](C)NC(=O)[C@H](CCC(N)=O)NC(=O)[C@H](CCCNC(=N)N)NC(=O)[C@H](CCCCN)NC(=O)[C@H](C)N)[C@@H](C)O)C(=O)N[C@@H](C)C(=O)N[C@@H](Cc1c[nH]c2ccccc12)C(=O)O` [Syn-xiamencin-92] (H-AKRQALTKYLLEELRKRGKKAFIAW-OH; N-terminus and C-terminus assumed), the MBC was found to be 8 µM in the series with S. aureus (USA300), 8 µM in the series with S. pyogenes (M1), 16 µM with P. aeruginosa (PAO1) and 8 µM in the series on E. coli (BL21) (BL21). The MIC came to 8 µM in the series on S. aureus (USA300); 4 µM in the series with S. pyogenes (M1); 16 µM in the series with P. aeruginosa (PAO1); 4 µM in the series on E. coli (BL21) (BL21, 16 h). The “Percent Hemolysis” value in the series on sheep erythrocytes was determined as 18.8%.
As for `CC[C@H](C)[C@H](NC(=O)[C@H](CCC(=O)O)NC(=O)[C@H](CCCNC(=N)N)NC(=O)[C@H](CCCNC(=N)N)NC(=O)[C@H](CC(C)C)NC(=O)[C@H](Cc1ccc(O)cc1)NC(=O)[C@H](CCCCN)NC(=O)[C@H](C)NC(=O)[C@@H](NC(=O)[C@@H](NC(=O)[C@H](CCC(N)=O)NC(=O)[C@H](CCCNC(=N)N)NC(=O)[C@H](Cc1c[nH]c2ccccc12)NC(=O)[C@H](C)N)[C@@H](C)O)[C@@H](C)CC)C(=O)N[C@@H](CCCNC(=N)N)C(=O)N[C@@H](CCCCN)C(=O)N[C@@H](CCCNC(=N)N)C(=O)NCC(=O)N[C@@H](CCCNC(=N)N)C(=O)N[C@@H](CCCCN)C(=O)N[C@@H](C)C(=O)N[C@H](C(=O)N[C@H](C(=O)N[C@@H](C)C(=O)N[C@@H](Cc1c[nH]c2ccccc12)C(=O)O)[C@@H](C)CC)C(C)C` [Syn-sordellicin-18] (H-AWRQTIAKYLRREIRKRGRKAVIAW-OH; N-terminus and C-terminus assumed), the MBC turned out to be 32 µM with S. aureus (USA300), 4 µM with S. pyogenes (M1), 8 µM with P. aeruginosa (PAO1) and 1 µM with E. coli (BL21) (BL21). For the same compound, the MIC in the series with S. aureus (USA300) stood at 32 µM; in the series on S. pyogenes (M1), 4 µM; in the series with P. aeruginosa (PAO1) it was 4 µM; in the series with E. coli (BL21) (BL21, 16 h) it was 1 µM. The “Percent Hemolysis” value in the series with sheep erythrocytes is 14.1%.
Consider `CC[C@H](C)[C@H](NC(=O)[C@H](Cc1ccccc1)NC(=O)[C@H](C)NC(=O)[C@H](CCCCN)NC(=O)[C@H](CCCCN)NC(=O)CNC(=O)[C@H](CCCNC(=N)N)NC(=O)[C@H](CCCCN)NC(=O)[C@H](CCCNC(=N)N)NC(=O)[C@H](CC(C)C)NC(=O)[C@H](Cc1ccc(O)cc1)NC(=O)[C@H](CCC(=O)O)NC(=O)[C@H](CCCCN)NC(=O)[C@H](CC(C)C)NC(=O)[C@H](CCC(=O)O)NC(=O)[C@H](CC(C)C)NC(=O)[C@@H](NC(=O)[C@H](CC(C)C)NC(=O)[C@H](CCCCN)NC(=O)[C@H](CCC(N)=O)NC(=O)[C@H](CCCNC(=N)N)NC(=O)CNC(=O)[C@H](C)N)[C@@H](C)O)C(=O)N[C@@H](C)C(=O)N[C@@H](Cc1c[nH]c2ccccc12)C(=O)O` [Syn-xiamencin-83] (H-AGRQKLTLELKEYLRKRGKKAFIAW-OH; N-terminus and C-terminus assumed), for which the MBC in the series with S. aureus (USA300) was above 128 µM; in the series on S. pyogenes (M1) it was 4 µM; in the series on P. aeruginosa (PAO1), above 128 µM; in the series with E. coli (BL21) (BL21) it was 32 µM. In addition, the MIC is above 128 µM with S. aureus (USA300); 4 µM in the series with S. pyogenes (M1); 128 µM in the series with P. aeruginosa (PAO1); 16 µM with E. coli (BL21) (BL21, 16 h). Further, in the series with sheep erythrocytes, the “Percent Hemolysis” value came out at 10.7%.
As to `CC[C@H](C)[C@H](NC(=O)[C@H](CCCCN)NC(=O)CNC(=O)[C@H](Cc1ccccc1)NC(=O)[C@H](CCCCN)NC(=O)[C@H](CCCNC(=N)N)NC(=O)[C@H](CC(C)C)NC(=O)[C@H](Cc1ccc(O)cc1)NC(=O)[C@H](CCC(=O)O)NC(=O)[C@H](CC(C)C)NC(=O)[C@H](CC(C)C)NC(=O)[C@H](CCC(=O)O)NC(=O)[C@H](CCCCN)NC(=O)[C@@H](NC(=O)[C@H](CC(C)C)NC(=O)[C@H](CCCNC(=N)N)NC(=O)[C@H](CC(N)=O)NC(=O)[C@H](C)NC(=O)[C@H](CCCCN)NC(=O)[C@H](C)N)[C@@H](C)O)C(=O)N[C@@H](C)C(=O)N[C@@H](CCCNC(=N)N)C(=O)N[C@@H](CCCCN)C(=O)N[C@@H](C)C(=O)N[C@@H](Cc1c[nH]c2ccccc12)C(=O)O` [Syn-xiamencin-96] (H-AKANRLTKELLEYLRKFGKIARKAW-OH; N-terminus and C-terminus assumed), the MBC with S. aureus (USA300) turned out to be 8 µM; in the series on S. pyogenes (M1), 4 µM; in the series with P. aeruginosa (PAO1) it was 16 µM; with E. coli (BL21) (BL21), 2 µM. In addition, the MIC turned out to be 8 µM in the series on S. aureus (USA300); 4 µM with S. pyogenes (M1); 16 µM in the series with P. aeruginosa (PAO1); 2 µM in the series with E. coli (BL21) (BL21, 16 h). The “Percent Hemolysis” value with sheep erythrocytes worked out at 20.0%.
Consider `CC[C@H](C)[C@H](NC(=O)[C@H](CCCCN)NC(=O)[C@H](C)NC(=O)[C@H](CCCNC(=N)N)NC(=O)[C@H](CCCCN)NC(=O)CNC(=O)[C@H](CCCCN)NC(=O)[C@H](CCC(=O)O)NC(=O)[C@H](CCC(N)=O)NC(=O)[C@@H](NC(=O)[C@H](CCCCN)NC(=O)[C@H](CCCCN)NC(=O)[C@H](CCCCN)NC(=O)[C@H](CC(C)C)NC(=O)[C@H](CCCNC(=N)N)NC(=O)[C@H](CCC(N)=O)NC(=O)[C@H](Cc1ccccc1)NC(=O)[C@@H](NC(=O)[C@@H](NC(=O)[C@H](CCC(=O)O)NC(=O)[C@H](CCCCN)NC(=O)CNC(=O)[C@H](C)N)[C@@H](C)O)[C@@H](C)CC)[C@@H](C)CC)C(=O)N[C@@H](C)C(=O)N[C@@H](Cc1c[nH]c2ccccc12)C(=O)O` [Syn-larvacin-91] (H-AGKETIFQRLKKKIQEKGKRAKIAW-OH; N-terminus and C-terminus assumed), for which the MBC in the series on S. aureus (USA300) came to 2 µM; in the series with S. pyogenes (M1) it was 0.5 µM; with P. aeruginosa (PAO1), 64 µM; in the series on E. coli (BL21) (BL21) it was 2 µM. The MIC in the series on S. aureus (USA300) amounted to 2 µM; in the series with S. pyogenes (M1), 0.5 µM; in the series on P. aeruginosa (PAO1), 32 µM; in the series with E. coli (BL21) (BL21, 16 h) it was 1 µM. For the same compound, the “Percent Hemolysis” value with sheep erythrocytes was 23.4%.
